Laboratory results reported in patent publication EP4603105A1, “PHARMACEUTICAL COMPOSITION CONTAINING CYCLIC COMPOUND HAVING SELECTIVE KRAS INHIBITORY EFFECT AGAINST HRAS AND NRAS” (CHUGAI SEIYAKU KABUSHIKI KAISHA, priority 2022, dated 2024).
Where a SMILES comes first, the peptide text is derived from it. Bridges are numbered along the chain shown (N, C = ends). [ ]: non-standard residue; d: D form. The star is where a group is joined. hPhe(3,5-F2-4-CF3) = N[C@@H](CCc1cc(F)c(C(F)(F)F)c(F)c1)C(=O)O; hPhe(3-Cl-4-CF3) = N[C@@H](CCc1ccc(C(F)(F)F)c(Cl)c1)C(=O)O; NPrPhe(4-CF3) = CCCN[C@@H](Cc1ccc(C(F)(F)F)cc1)C(=O)O; NMeAbu(4,4,4-F3) = CN[C@@H](CC(F)(F)F)C(=O)O; NMeGly(cPent) = CN[C@H](C(=O)O)C1CCCC1; Pro(4,4-F2) = O=C(O)[C@@H]1CC(F)(F)CN1; NMeD = CN[C@@H](CC(=O)O)C(=O)O; NMeL = CN[C@@H](CC(C)C)C(=O)O; Morpholide = C1CN(*)CCO1; NMeA = CN[C@@H](C)C(=O)O; Ac5c = NC1(C(=O)O)CCCC1; Aze = O=C(O)[C@@H]1CCN1; Sar = CNCC(=O)O

How the values were obtained:
[1] = molecular target: HRAS wild-type protein (Homo sapiens, UniProt P01112); assay: Binding to HRAS by surface plasmon resonance (SPR), KD and KD ratio to KRAS
Method in brief: (§1)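 Captured GDP-RAS (~100–300 RU) was exposed to increasing compound concentrations, 75 s per step, in running buffer with 10 µM GDP, 10 mM MgCl2 and 4% DMSO at pH 7.4.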

[2] = tested on: human lung cancer strain NCI-H441; format: cell-based
Method in brief: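 Step one: dispense the test compound in serial DMSO dilutions. Step three: add the reagent and measure […].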

[3] = molecular target: GDP-bound NRAS wild-type protein (Homo sapiens, UniProt P01111); assay: Binding to NRAS by surface plasmon resonance (SPR), KD and KD ratio to KRAS
Method in brief: as §1

[4] = ratio of the KD value with respect to HRAS wild-type protein to the KD value with respect to KRAS
[5] = ratio of the KD value with respect to GDP-bound NRAS wild-type protein to the KD value with respect to KRAS
[6] = ratio of KD value for HRAS wild-type protein to KD value for KRAS (SPR)
[7] = ratio of KD value for GDP-bound NRAS wild-type protein to KD value for KRAS (SPR)
[8] = ratio of KD for HRAS wild-type protein to KD for KRAS
[9] = ratio of KD for GDP-bound NRAS wild-type protein to KD for KRAS

HRAS wild-type protein, sequence (P01112 whole entry): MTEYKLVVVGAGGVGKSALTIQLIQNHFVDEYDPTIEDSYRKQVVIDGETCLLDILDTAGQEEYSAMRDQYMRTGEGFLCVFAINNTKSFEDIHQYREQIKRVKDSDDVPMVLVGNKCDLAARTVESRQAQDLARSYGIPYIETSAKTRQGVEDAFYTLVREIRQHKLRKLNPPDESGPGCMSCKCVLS
GDP-bound NRAS wild-type protein, sequence (P01111 whole entry): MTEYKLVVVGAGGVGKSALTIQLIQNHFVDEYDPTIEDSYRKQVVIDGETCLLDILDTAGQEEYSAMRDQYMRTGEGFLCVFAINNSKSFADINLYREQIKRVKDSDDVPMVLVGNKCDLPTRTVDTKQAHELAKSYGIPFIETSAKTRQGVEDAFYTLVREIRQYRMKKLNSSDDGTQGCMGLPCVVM

Row | SMILES | IC50 [2] [nM] | HRAS /KRAS [1, 4] | NRAS /KRAS [3, 5] | HRAS /KRAS [1, 6] | NRAS /KRAS [3, 7] | HRAS /KRAS [1, 8] | NRAS /KRAS [3, 9]
1 | CCC[C@H]1C(=O)N[C@@H]([C@@H](C)CC)C(=O)N(C)CC(=O)N(C)[C@H]2CCCCN(C2=O)[C@@H](Cc2ccc(C(F)(F)F)cc2)C(=O)N(C)CC(=O)N[C@@H](CCc2cc(F)c(C(F)(F)F)c(F)c2)C(=O)N2C[C@H](OCC)C[C@H]2C(=O)NC2(CCC2)C(=O)N(C)[C@@H](C2CCCC2)C(=O)N(C)[C@H](C(=O)N(C)C)CC(=O)N1C [PP0694] | 3.5 | C (A compound having a KD ratio of 0.1 or more and less than 3 is denoted as C) | C (A compound having a KD ratio of 0.1 or more and less than 3 is denoted as C) |  |  |  | 
2 | CCCN1C(=O)CN(C)C(=O)CN(C)C(=O)[C@H]([C@@H](C)CC)NC(=O)[C@H](CC(C)C)N(C)C(=O)C[C@@H](C(=O)N(C)C)N(C)C(=O)[C@H](CC(F)(F)F)N(C)C(=O)C2(CCCC2)NC(=O)[C@@H]2CCCN2C(=O)[C@H](CCc2cc(F)c(C(F)(F)F)c(F)c2)NC(=O)CN(C)C(=O)[C@@H]1Cc1ccc(C(F)(F)F)cc1 [PP0746] ([NMeL]I[Sar][Sar][NPrPhe(4-CF3)][Sar][hPhe(3,5-F2-4-CF3)]P[Ac5c][NMeAbu(4,4,4-F3)][NMeD]-NMe2; lactam N-11) | 35.4 | C (A compound having a KD ratio of 0.1 or more and less than 3 is denoted as C) | B (a compound having 3 or more and less than 10 is denoted as B) |  |  |  | 
3 | CC[C@H](C)[C@@H]1NC(=O)[C@H](CC)N(C)C(=O)C[C@@H](C(=O)N(C)C)N(CC)C(=O)[C@H](C2CCCC2)N(C)C(=O)C2(CCC2)NC(=O)[C@@H]2CCCN2C(=O)[C@H](CCc2cc(F)c(C(F)(F)F)c(F)c2)NC(=O)CN(C)C(=O)[C@H](Cc2ccc(C(F)(F)F)cc2)N2CC/C=C\C[C@@H](C2=O)N(C)C(=O)CN(C)C1=O [PP1106] | 155 |  |  |  |  | A (a compound having 10 or more and less than 20 is denoted as A) | A (a compound having 10 or more and less than 20 is denoted as A)
4 | CC[C@H](C)[C@@H]1NC(=O)[C@H](COC)N(C)C(=O)C[C@@H](C(=O)N2CCOCC2)N(C)C(=O)[C@H](C2CCCC2)N(C)C(=O)C2(CCC2)NC(=O)[C@@H]2C[C@@H](OCC(C)C)CN2C(=O)[C@H](CCc2cc(F)c(C(F)(F)F)c(F)c2)NC(=O)CN(C)C(=O)[C@H](Cc2ccc(C(F)(F)F)cc2)N2CCCCC[C@@H](C2=O)N(C)C(=O)CN(C)C1=O [PP0839] | 122 |  |  |  |  | B (a compound having 3 or more and less than 10 is denoted as B) | B (a compound having 3 or more and less than 10 is denoted as B)
5 | CCO[C@@H]1C[C@H]2C(=O)NC3(CCC3)C(=O)N(C)[C@@H](C3CCCC3)C(=O)N(C)[C@H](C(=O)N3CCOCC3)CC(=O)N(C)[C@@H](COC)C(=O)N[C@@H]([C@@H](C)CC)C(=O)N(C)CC(=O)N(C)[C@H]3CCCCN(C3=O)[C@@H](Cc3ccc(C(F)(F)F)cc3)C(=O)N(C)CC(=O)N[C@@H](CCc3cc(F)c(C(F)(F)F)c(F)c3)C(=O)N2C1 [PP0719] | 8.5 | B (a compound having 3 or more and less than 10 is denoted as B) | C (A compound having a KD ratio of 0.1 or more and less than 3 is denoted as C) |  |  |  | 
6 | CCCN1C(=O)[C@@H]2CCN2C(=O)CN(C)C(=O)[C@H]([C@@H](C)CC)NC(=O)[C@H](CC(C)C)N(C)C(=O)C[C@@H](C(=O)N2CCOCC2)N(C)C(=O)[C@H](C2CCCC2)N(C)C(=O)C2(CCCC2)NC(=O)[C@@H]2CC(F)(F)CN2C(=O)[C@H](CCc2ccc(C(F)(F)F)c(Cl)c2)NC(=O)CN(C)C(=O)[C@@H]1Cc1ccc(C(F)(F)F)cc1 [PP0408] ([NMeL]I[Sar][Aze][NPrPhe(4-CF3)][Sar][hPhe(3-Cl-4-CF3)][Pro(4,4-F2)][Ac5c][NMeGly(cPent)][NMeD]-Morpholide; lactam N-11) | 5.7 | B (a compound having 3 or more and less than 10 is denoted as B) | C (A compound having a KD ratio of 0.1 or more and less than 3 is denoted as C) |  |  |  | 
7 | CCC[C@H]1C(=O)N[C@@H]([C@@H](C)CC)C(=O)N(C)CC(=O)N(C)[C@H]2C/C=C\CCN(C2=O)[C@@H](Cc2ccc(C(F)(F)F)cc2)C(=O)N(C)CC(=O)N[C@@H](CCc2cc(Cl)c3sccc3c2)C(=O)N2C[C@H](OCC)C[C@H]2C(=O)NC2(CC(C)(C)C2)C(=O)N(C)[C@@H](C2CCCC2)C(=O)N(C)[C@H](C(=O)N(C)C)CC(=O)N1C [PP2946] | 5.3 |  |  |  |  | A (a compound having 10 or more and less than 20 is denoted as A) | A (a compound having 10 or more and less than 20 is denoted as A)
8 | CCCN1C(=O)[C@@H]2CCN2C(=O)[C@H](C)N(C)C(=O)[C@H]([C@@H](C)CC)NC(=O)[C@H](CC(C)C)N(C)C(=O)C[C@@H](C(=O)N2CCOCC2)NC(=O)[C@H](C2CCCC2)N(C)C(=O)C2(CCCC2)NC(=O)[C@@H]2CC(F)(F)CN2C(=O)[C@H](CCc2ccc(C(F)(F)F)c(Cl)c2)NC(=O)CN(C)C(=O)[C@@H]1Cc1ccc(C(F)(F)F)cc1 [PP0345] ([NMeL]I[NMeA][Aze][NPrPhe(4-CF3)][Sar][hPhe(3-Cl-4-CF3)][Pro(4,4-F2)][Ac5c][NMeGly(cPent)]D-Morpholide; lactam N-11) | 54.9 |  |  |  |  | B (a compound having 3 or more and less than 10 is denoted as B) | C (A compound having a KD ratio of 0.1 or more and less than 3 is denoted as C)
9 | CC[C@H](C)[C@@H]1NC(=O)[C@@H]2CCCCc3ccc(cc3)C[C@@H](C(=O)N(C)CC(=O)N[C@@H](CCc3ccc(C(F)(F)F)c(OC)c3)C(=O)N3C[C@H](OC(C)C)C[C@H]3C(=O)NC3(CC(C)(C)C3)C(=O)N(C)[C@@H](C3CCCC3)C(=O)N(C)[C@H](C(=O)N(C)CC)CC(=O)N2C)N2CC/C=C\C[C@@H](C2=O)N(C)C(=O)CN(C)C1=O [PP3078] | 2.3 |  |  |  |  | B (a compound having 3 or more and less than 10 is denoted as B) | A (a compound having 10 or more and less than 20 is denoted as A)

More lines, in order of falling IC50 [2], values ahead:

Row | IC50 [2] [nM] | SMILES | HRAS /KRAS [1, 4] | NRAS /KRAS [3, 5] | HRAS /KRAS [1, 6] | NRAS /KRAS [3, 7] | HRAS /KRAS [1, 8] | NRAS /KRAS [3, 9]
10 | 101 | CC[C@H](C)[C@@H]1NC(=O)[C@H](COC)N(C)C(=O)C[C@@H](C(=O)N2CCOCC2)N(C)C(=O)[C@H](C2CCCC2)N(C)C(=O)C2(CCCC2)NC(=O)[C@@H]2CCCN2C(=O)[C@H](CCc2ccc(C(F)(F)F)c(Cl)c2)NC(=O)CN(C)C(=O)[C@H](Cc2ccc(F)cc2)N2CCCCC[C@@H](C2=O)N(C)C(=O)CN(C)C1=O [PP0960] |  |  |  |  | B (a compound having 3 or more and less than 10 is denoted as B) | B (a compound having 3 or more and less than 10 is denoted as B)
11 | 34.8 | CC[C@H](C)[C@@H]1NC(=O)[C@H](C)N(C)C(=O)C[C@@H](C(=O)N(C)C)N(C)C(=O)[C@H](C2CCCC2)N(C)C(=O)C2(CCC2)NC(=O)[C@@H]2CC(F)(F)CN2C(=O)[C@H](CCc2cc(F)c(C(F)(F)F)c(F)c2)NC(=O)CN(C)C(=O)[C@H](Cc2ccc(C(F)(F)F)cc2)N2CC/C=C\C[C@@H](C2=O)N(C)C(=O)CN(C)C1=O [PP1103] |  |  |  |  | B (a compound having 3 or more and less than 10 is denoted as B) | A (a compound having 10 or more and less than 20 is denoted as A)
12 | 16.9 | CCO[C@@H]1C[C@H]2C(=O)NC3(CCC3)C(=O)N(C)[C@@H](C3CCCC3)C(=O)N(C)[C@H](C(=O)N(C)CC)CC(=O)N(C)[C@@H](CC3CC3)C(=O)N[C@@H]([C@@H](C)CC)C(=O)N(C)CC(=O)N(C)[C@H]3C/C=C\CCN(C3=O)[C@@H](Cc3ccc(C)cc3)C(=O)N(C)CC(=O)N[C@@H](CCc3ccc(C(F)(F)F)c(OC)c3)C(=O)N2C1 [PP1879] |  |  | B (a compound having 3 or more and less than 10 is denoted as B) | A (a compound having 10 or more and less than 20 is denoted as A) |  | 
13 | 13.9 | CCC(CC)[C@H]1C(=O)N(C)[C@H](C(=O)N(C)C)CC(=O)N(C)[C@@H](COC)C(=O)N[C@@H]([C@@H](C)CC)C(=O)N(C)CC(=O)N(C)[C@H]2C/C=C\CCN(C2=O)[C@@H](Cc2ccc(C(F)(F)F)cc2)C(=O)N(C)CC(=O)N[C@@H](CCc2cc(F)c(C(F)(F)F)c(F)c2)C(=O)N2CC3(CC3)C[C@H]2C(=O)NC2(CC(C)(C)C2)C(=O)N1C [PP2961] |  |  |  |  | A (a compound having 10 or more and less than 20 is denoted as A) | AA (a compound having 20 or more is denoted as AA)
14 | 4.7 | CCC[C@H]1C(=O)N[C@@H]([C@@H](C)CC)C(=O)N(C2CC2)CC(=O)N(C)[C@H]2C/C=C\CCN(C2=O)[C@@H](Cc2ccc(C)cc2)C(=O)N(C)CC(=O)N[C@@H](CCc2ccc(C(F)(F)F)c(OC)c2)C(=O)N2C[C@H](OCC)C[C@H]2C(=O)N(C)C2(CCC2)C(=O)N(C)[C@@H](C2CCCC2)C(=O)N(C)[C@H](C(=O)N2CCCC2)CC(=O)N1C [PP3098] |  |  |  |  | A (a compound having 10 or more and less than 20 is denoted as A) | A (a compound having 10 or more and less than 20 is denoted as A)
15 | 1.5 | CC[C@H](C)[C@@H]1NC(=O)[C@H](CC2CC2)N(C)C(=O)C[C@@H](C(=O)N(C)C)N(C)C(=O)[C@H](C2CCCC2)N(C)C(=O)C2(CC(C)(C)C2)NC(=O)[C@@H]2C[C@@H](F)CN2C(=O)[C@H](CCc2cc(F)c(C(F)(F)F)c(F)c2)NC(=O)CN(C)C(=O)[C@H](Cc2ccc(C(F)(F)F)cc2)N2CC/C=C\C[C@@H](C2=O)N(C)C(=O)CN(C)C1=O [PP1501] |  |  | A (a compound having 10 or more and less than 20 is denoted as A) | A (a compound having 10 or more and less than 20 is denoted as A) |  | 
